Experimental data from patent US10030016B2 (Sunesis Pharmaceuticals, Inc., priority 2009, dated 2018).
Where a name gives a salt, the structure may show the parent alone. Read-outs that look alike come from different tables or passages of the source.

Columns and labels:
[1] = biological target: PDK1 (Homo sapiens (Human), UniProt O15530); assay: PDK1 kinase assay (coupled PDK1/AKT/FAM-crosstide assay, IMAP fluorescence polarization); format: biochemical
Outline: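 PDK1 activity is measured indirectly through activation of a PIFtide-fused AKT2 construct that phosphorylates FAM-crosstide (100 nM). The reaction uses 0.75 nM PDK1, 40 μM ATP, 30 min, 25° C, with IMAP polarization detection.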

[2] = system: phospho-akt (Thr308) in PC-3 cells; assay: Inhibition of phospho-akt (Thr308) in PC-3 cells, MSD phospho-akt 308 ELISA kit; format: cell-based; settings: Homo sapiens, 2 hours, no serum, read-out: EC50
Outline: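 Read-out is MSD electrochemiluminescence of Akt phosphorylated at Thr308 in lysates of PC-3 cells treated 2 h with compound in serum-free medium. Wortmannin at 5 μM defined the low control and DMSO the high control.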

[3] = inhibition of P308 Akt in PC-3 cells using MSD
[4] = inhibition of phospo-PDK1 in vitro
[5] = inhibition of P308 Akt in PC-3 cells, MSD

Chain of PDK1 (O15530 51-359): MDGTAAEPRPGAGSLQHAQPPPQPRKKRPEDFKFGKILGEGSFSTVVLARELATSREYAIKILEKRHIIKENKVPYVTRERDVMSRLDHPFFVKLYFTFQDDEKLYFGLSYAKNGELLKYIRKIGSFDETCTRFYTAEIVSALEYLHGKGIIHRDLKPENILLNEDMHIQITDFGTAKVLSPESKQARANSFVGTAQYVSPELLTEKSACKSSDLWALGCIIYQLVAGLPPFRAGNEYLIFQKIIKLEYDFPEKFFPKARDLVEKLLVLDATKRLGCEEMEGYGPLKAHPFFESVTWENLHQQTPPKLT

With `C[C@H](NC(=O)c1cc(C#N)cnc1NCc1ccc(-c2cnc3[nH]c(=O)[nH]c3c2)cc1)c1ccc(F)c(F)c1` [Example 361, (S)-5-cyano-N-(1-(3,4-difluorophenyl)ethyl)-2-(4-(2-oxo-2,3-dihydro-1H-imidazo[4,5-b]pyridin-6-yl)benzylamino) nicotinamide] the IC50 ([1]; inhibition of PDK1 in vitro) was < 100 nM and the EC50 [2, 3] was < 1000 nM.

With `Nc1ncnc2ccc(-c3ccc(CNc4ncccc4C(=O)NCc4ccc(F)cc4)s3)cc12` [Example 3.7, 2-({[5-(4-aminoquinazolin-6-yl)thiophen-2-yl]methyl}amino)-N-(4-fluorobenzyl)pyridine-3-carboxamide (TFA salt)] the IC50 [1, 4] was < 100 nM and the EC50 [2, 5] was < 1000 nM.

`Cn1ccc(Nc2ncnc3ccc(-c4ccc(CNc5ncccc5C(=O)NCc5ccc(F)c(F)c5)s4)cc23)n1` [Example 2.34, N-(3,4-difluorobenzyl)-2-(((5-(4-(1-methyl-1H-pyrazol-3-ylamino)quinazolin-6-yl)thiophen-2-yl)methyl)amino) nicotinamide] was tested, and the IC50 [1, 4] was > 5000 nM and the EC50 [2, 5] was > 10000 nM.

`Nc1ncnc2ccc(-c3ccc(CNc4ncccc4C(=O)NCc4cc(F)cc(F)c4)s3)cc12` [Example 3.39, 2-({[5-(4-aminoquinazolin-6-yl)thiophen-2-yl]methyl}amino)-N-(3,5-difluorobenzyl) pyridine-3-carboxamide (TFA salt)] was tested, and the IC50 [1, 4] was < 100 nM and the EC50 [2, 5] was < 1000 nM.

With `C[C@H](NC(=O)c1cccnc1NCc1cccc(-c2c[nH]c3ncnc(N)c23)c1)c1ccc(F)c(F)c1` [Example 2.30, (S)-2-(3-(4-amino-7H-pyrrolo[2,3-d]pyrimidin-5-yl)benzylamino)-N-(1-(3,4-difluorophenyl)ethyl) nicotinamide] the IC50 [1, 4] was < 100 nM and the EC50 [2, 5] was 1000 to 10000 nM.

In the case of `Cc1ccc(F)cc1CNC(=O)c1cccnc1NCc1ccc(-c2ccc3ncnc(N)c3c2)s1` [Example 3.18, 2-({[5-(4-aminoquinazolin-6-yl)thiophen-2-yl]methyl}amino)-N-(5-fluoro-2-methylbenzyl) pyridine-3-carboxamide (TFA salt)], the IC50 [1, 4] is reported as 100 to 1000 nM and the EC50 [2, 5] is reported as > 10000 nM.

With `C[C@H](NC(=O)c1cc(C(F)(F)F)cnc1NCc1ccc(-c2cnc3[nH]ncc3c2)cc1)c1ccc(F)cc1` [Example 246, N-[(S)-1-(4-Fluoro-phenyl)-ethyl]-2-[4-(1H-pyrazolo[3,4-b]pyridin-5-yl)-benzylamino]-5-trifluoromethyl-nicotinamide] the IC50 ([1]; inhibition of PDK1 in vitro) was < 100 nM and the EC50 [2, 3] was < 1000 nM.

With `C=C(C)c1cnc(NCc2ccc(-c3ccc4ncnc(N)c4c3)s2)c(C(=O)NCc2ccc(F)c(F)c2)n1` [Ex. 10.5, 3-({[5-(4-aminoquinazolin-6-yl)thiophen-2-yl]methyl}amino)-N-(3,4-difluorobenzyl)-6-(prop-1-en-2-yl)pyrazine-2-carboxamide] the IC50 [1, 4] was < 100 nM and the EC50 [2, 5] was 1000 to 10000 nM.

With `C[C@H](NC(=O)c1cccnc1NCc1ccc(-c2ccc3nccn3c2)s1)c1ccc(F)cc1` [Example 2.7, (S)-N-(1-(4-fluorophenyl)ethyl)-2-(((5-(imidazo[1,2-a]pyridin-6-yl)thiophen-2-yl)methyl)amino)nicotinamide] the IC50 [1, 4] was 1000 to 5000 nM and the EC50 [2, 5] was > 10000 nM.

`C[C@H](NC(=O)c1cccnc1NCc1ccc(-c2cc3c(cn2)nc(N)n3C)s1)c1ccc(F)cc1` [Example 2.23, (S)-2-(((5-(2-amino-1-methyl-1H-imidazo[4,5-c]pyridin-6-yl)thiophen-2-yl)methyl)amino)-N-(1-(4-fluorophenyl)ethyl) nicotinamide] was tested, and the IC50 [1, 4] was 1000 to 5000 nM and the EC50 [2, 5] was > 10000 nM.

For `C[C@H](NC(=O)c1cc(C#N)cnc1NCc1ccc(-c2cnc(N)c(N3CCNCC3)n2)cc1)c1ccc(F)cc1` [Example 191, 2-[4-(3′-Amino-3,4,5,6-tetrahydro-2H-[1,2′]bipyrazinyl-6′-yl)-benzylamino]-5-cyano-N-[(S)-1-(4-fluoro-phenyl)-ethyl]-nicotinamide], the IC50 ([1]; inhibition of PDK1 in vitro) was < 100 nM and the EC50 [2, 3] was < 1000 nM.

In the case of `CC(C)(C)NS(=O)(=O)c1cnc(NCc2ccc(-c3ccc4ncnc(N)c4c3)s2)c(C(=O)NCc2ccc(F)c(F)c2)c1` [Example 8.6.20, 2-(((5-(4-aminoquinazolin-6-yl)thiophen-2-yl)methyl)amino)-5-(N-tert-butylsulfamoyl)-N-(3,4-difluorobenzyl)nicotinamide], the IC50 [1, 4] is reported as 100 to 1000 nM and the EC50 [2, 5] is reported as > 10000 nM.

`COc1ccc([C@H](COc2ccc(N)c(N)c2)Nc2ncccc2C(=O)N[C@@H](C)c2ccc(F)c(F)c2)cc1` [Example 16.6, 2-((R)-2-(3,4-diaminophenoxy)-1-(4-methoxyphenyl)ethylamino)-N-((S)-1-(3,4-difluorophenyl)ethyl)nicotinamide] was tested, and the IC50 [1, 4] was > 5000 nM and the EC50 [2, 5] was > 10000 nM.

With `Cc1nc2[nH]nc(N)c2cc1-c1ccc(CNc2ncc(C#N)nc2C(=O)N[C@@H](C)c2ccc(F)c(F)c2)cc1` [Example 400, (S)-3-(4-(3-amino-6-methyl-1H-pyrazolo[3,4-b]pyridin-5-yl)benzylamino)-6-cyano-N-(1-(3,4-difluorophenyl)ethyl)pyrazine-2-carboxamide] the IC50 ([1]; inhibition of PDK1 in vitro) was < 100 nM and the EC50 [2, 3] was 1000 to 10000 nM.

For `Nc1ncnc2[nH]nc(-c3ccc(CNc4ncc(C(F)(F)F)cc4C(=O)NCc4ccc(F)c(F)c4)cc3)c12` [Example 329, 2-[4-(4-Amino-1H-pyrazolo [3,4-d]pyrimidin-3-yl)-benzylamino]-N-(3,4-difluoro-benzyl)-5-trifluoromethyl-nicotinamide], the IC50 ([1]; inhibition of PDK1 in vitro) was < 100 nM and the EC50 [2, 3] was < 1000 nM.

In the case of `N#CCc1n[nH]c2ncc(-c3ccc(CNc4ncc(C(F)(F)F)cc4C(=O)Nc4ccc(F)cc4)cc3)cc12` [Example 157, 2-(4-(3-(cyanomethyl)-1H-pyrazolo[3,4-b]pyridin-5-yl)benzylamino)-N-(4-fluorophenyl)-5-(trifluoro-methyl)nicotinamide], the IC50 ([1]; inhibition of PDK1 in vitro) is reported as < 100 nM and the EC50 [2, 3] is reported as < 1000 nM.

In the case of `C[C@H](NC(=O)c1nc(C#N)cnc1NCc1ccc(-c2cnc(N)c(CCC(C)(C)N)n2)cc1)c1ccc(F)c(F)c1` [Example 84, 3-{4-[5-Amino-6-(3-amino-3-methyl-butyl)-pyrazin-2-yl]-benzylamino}-6-cyano-pyrazine-2-carboxylic acid [(S)-1-(3,4-difluoro-phenyl)-ethyl]-amide], the IC50 ([1]; inhibition of PDK1 in vitro) is reported as < 100 nM and the EC50 [2, 3] is reported as < 1000 nM.

With `Nc1ncnc2ccc(-c3ccc(CNc4ncccc4C(=O)NCc4cc(F)ccc4F)s3)cc12` [Example 3.6, 2-({[5-(4-aminoquinazolin-6-yl)thiophen-2-yl]methyl}amino)-N-(2,5-difluorobenzyl)pyridine-3-carboxamide] the IC50 [1, 4] was 100 to 1000 nM and the EC50 [2, 5] was > 10000 nM.

`C[C@H](NC(=O)c1cccnc1NCc1ccc(-c2ccc3ncnc(N4CC(CO)C4)c3c2)s1)c1ccc(F)c(F)c1` [Example 4.38] was tested, and the IC50 [1, 4] was < 100 nM and the EC50 [2, 5] was 1000 to 10000 nM.

`N#Cc1cnc(NCc2ccc(Oc3cccnc3N)cc2)c(C(=O)NCc2ccc(F)c(F)c2)c1` [Example 313, 2-(4-(2-aminopyridin-3-yloxy)benzylamino)-5-cyano-N-(3,4-difluorobenzyl) nicotinamide] was tested, and the IC50 ([1]; inhibition of PDK1 in vitro) was > 5000 nM and the EC50 [2, 3] was > 10000 nM.

`C[C@H](NC(=O)c1cc(C(F)(F)F)cnc1NCc1ccc(-c2ccc3ncc4ncn(C)c4c3c2)s1)c1ccc(F)c(F)c1` [Example 2.27, (S)-5-trifluoromethyl-N-(1-(3,4-difluorophenyl)ethyl)-2-(((5-(1-methyl-1H-imidazo[4,5-c]quinolin-8-yl)thiophen-2-yl)methyl)amino)nicotinamide] was tested, and the IC50 [1, 4] was < 100 nM and the EC50 [2, 5] was < 1000 nM.

`CCN(CC)CCNC(=O)c1cc(-c2ccc(CNc3ncc(C#N)cc3C(=O)N[C@@H](C)c3ccc(F)cc3)cc2)cnc1N` [Example 118] was tested, and the IC50 ([1]; inhibition of PDK1 in vitro) was < 100 nM and the EC50 [2, 3] was 1000 to 10000 nM.

In the case of `C[C@H](NC(=O)c1cc(C#N)cnc1NCc1ccc(-c2cnc(N)c(F)c2)cc1)c1ccc(F)cc1` [Example 110, (S)-2-(4-(6-amino-5-fluoropyridin-3-yl)benzylamino)-5-cyano-N-(1-(4-fluorophenyl)ethyl)nicotinamide], the IC50 ([1]; inhibition of PDK1 in vitro) is reported as < 100 nM and the EC50 [2, 3] is reported as < 1000 nM.

Molecule `CN1CCN(Cc2cccc(NC(=O)c3cc(C(F)(F)F)cnc3NCc3ccc(-c4cnc5[nH]nc(N)c5c4)cc3)c2)CC1` [Example 440, 2-(4-(3-amino-1H-pyrazolo[3,4-b]pyridin-5-yl)benzylamino)-N-(3-((4-methylpiperazin-1-yl)methyl)phenyl)-5-(trifluoromethyl)nicotinamide] has an IC50 ([1]; inhibition of PDK1 in vitro) of 100 to 1000 nM and an EC50 [2, 3] of 1000 to 10000 nM.

In the case of `COCCNc1ncnc2ccc(-c3ccc(CNc4ncccc4C(=O)N[C@@H](C)c4ccc(F)c(F)c4)s3)cc12` [Example 4.33], the IC50 [1, 4] is reported as < 100 nM and the EC50 [2, 5] is reported as 1000 to 10000 nM.

With `Nc1cnc(-c2ccc(CNc3ncc(C(F)(F)F)cc3C(=O)NCc3ccc(F)c(F)c3)cc2)cn1` [Example 124, 2-(4-(5-aminopyrazin-2-yl)benzylamino)-N-(3,4-difluorobenzyl)-5-(trifluoromethyl) nicotinamide] the IC50 ([1]; inhibition of PDK1 in vitro) was < 100 nM and the EC50 [2, 3] was < 1000 nM.

In the case of `C[C@H](NC(=O)c1nc(C#N)cnc1NCc1ccc(-c2ccn3ncnc(N)c23)cc1)c1ccc(F)c(F)c1` [Example 175, 3-[4-(4-Amino-pyrrolo [2,1-f][1,2,4]triazin-5-yl)-benzylamino]-6-cyano-pyrazine-2-carboxylic acid [(S)-1-(3,4-difluoro-phenyl)-ethyl]-amide], the IC50 ([1]; inhibition of PDK1 in vitro) is reported as < 100 nM and the EC50 [2, 3] is reported as < 1000 nM.

In the case of `Nc1n[nH]c2ncc(-c3ccc(CNc4ncc(C(F)(F)F)cc4C(=O)NCC4CCCC4)cc3)cc12` [Example 264, 2-(4-(3-amino-1H-pyrazolo [3,4-b]pyridin-5-yl)benzylamino)-N-(cyclopentylmethyl)-5-(trifluoromethyl) nicotinamide], the IC50 ([1]; inhibition of PDK1 in vitro) is reported as < 100 nM and the EC50 [2, 3] is reported as 1000 to 10000 nM.
